Results on four molecules are retold here after patent US11788147B2, “Markers of triple-negative breast cancer and uses thereof” (Vanderbilt University, priority 2011, dated 2023).

SMILES strings stand for the structures. Where two headings read alike, the source gives them in different places.

Test [1] has as its system HCC1806 and MDA-MB-468 xenograft tumors. Kind of test: Xenograft tumor studies (Example 1), basal-like. The note with it: cisplatin i.p. 8 mg/kg/wk, approximately 3 weeks, relative to vehicle control; P<0.0001. It counts as in vivo, mice. On the procedure:
Xenograft tumor studies. Five-week-old female athymic nude-Foxnlnu mice (Harlan Sprague-Dawley) were injected (s.c.) with either approximately 5×10^6 (CAL-51, HCC1806, MDA-MB-468, and SUM185PE) or approximately 10×10^6 (CAL-148 and SUM159PT) cells suspended in medium (200 μl) into each flank using a 22-gauge needle. The protocols describing the process of xenograft tumor formation in athymic mice were reviewed and approved by the Vanderbilt Institutional Review Board. Once tumors reached a volume of 25-50 mm^3, mice were randomly allocated to treatment or vehicle arms. Treatments included bicalutamide per oral (100 mg/kg/d), cisplatin i.p. (8 mg/kg/wk), or NVP-BEZ235 per oral (50 mg/kg/d) in 1:9 N-methylpyrolidone: PEG300. Tumor diameters were serially measured at the indicated times with digital calipers, and tumor volumes were calculated as width^2×length/2. Data points reflect the means and SEM for 16 tumors per treatment.

The next test deals with LAR TNBC cell lines. Kind of test: Cell proliferation/viability assay (alamarBlue) and IC50 determination. The test is classed as cell-based, human. The note with it: 72 hours. On the procedure:
(§1) Cell proliferation/viability assays and IC50 determinations. All cell lines and culture conditions used can be found in Supplemental Methods (Table 5). Short tandem repeat (STR) DNA fingerprinting analysis was performed on all TNBC cell lines used in this study (Cell Line Genetics). […] Breast cancer cell lines and HMECs were seeded (3,000-10,000 cells) in quadruplicate wells in 96-well plates. […] Medium was then replaced with either fresh medium (control) or medium containing half-log serial dilutions of the following drugs: 0.3-30 μM olaparib (ChemieTek), 0.3-30 μM veliparib (ChemieTek), 1-100 μM bicalutamide (IPR Pharmaceutical), 0.3-30 μM cisplatin (APP Pharmaceutical), 3-300 nM NVP-BEZ235 (Chemdea), 10-1000 nM 17-DMAG (ChemieTek), and 0.1-10 μM dasatinib (LC Laboratories). Viability was determined from measuring fluorescent intensity after metabolic reduction of alamarBlue in the presence/absence of the drug after 72 hours. Viability assays were performed in triplicate, and replicates were normalized to untreated wells. […] For analysis of cell-line drug assays, data generated from the different cell lines representative of TNBC subtypes were compared using the nonparametric Mann-Whitney U test. All analyses and graphic representations were performed using Prism software (version 4.0c; GraphPad Software), and values are represented as the mean±SEM.
Background: Resazurin is reduced to fluorescent resorufin, in cell work by metabolically active cells.

Test [2] has as its system heterogeneous TNBC patient population. The note with it: neoadjuvant, single agent; cited from earlier work.
In test [3] the test system is activated caspase 3/7 in AR-positive TNBC cell lines. Kind of test: Caspase 3/7 activity (Caspase-Glo). It counts as cell-based, human. The note with it: 48 h; ADR 3 μM, bicalutamide 50 μM, GDC-0941 3 μM, GDC-0980 1 μM. On the procedure:
Cell lines were seeded in triplicate in 96-well plates. Media was removed and replaced with media containing vehicle (control) or indicated drugs. After 48 hrs, apoptosis was determined by measuring luciferase from activated caspase 3/7 upon addition of Caspase-Glo reagent (Promega, Madison, WI). Relative levels of caspase activity were normalized to viable cell number determined by metabolic reduction of Alamar blue.

Test [4] deals with AR-expressing TNBC cell lines. Kind of test: Viability of AR-expressing TNBC cell lines, PI3K inhibitors alone or with bicalutamide (2-D). The note with it: alone, 72 h. It counts as cell-based, human. On the procedure:
All cell lines were maintained in culture as previously described (JCI ref). Breast cancer cell lines and HMECs were seeded (3,000-10,000 cells) in quadruplicate wells in 96-well plates. […] Viability was determined from measuring fluorescent intensity after metabolic reduction of Alamar Blue in the presence/absence of drug after 72 hours. Viability assays were performed in triplicate and replicates were normalized to untreated wells.

Test [5] deals with p-AKT, p-S6 and AR in AR-expressing TNBC cell lines. Kind of test: Immunoblot analysis of the PI3K/mTOR pathway and AR. It counts as cell-based, human. The note with it: for activated AKT: 24 h or 48 h. On the procedure:
Immunoblot analysis was performed on cell lystates from untreated cells or cells treated alone or in combination with CDX, GDC-0941 and GDC-0980 to evaluate attenuation of the PI3K/mTOR pathway. […] Cells were trypsinized, lysed and relative protein expression was determined by Western blot as previously described (JCI reference) with the following antibodies; the AR polyclonal antibody, SC-N20 (Santa Cruz Biotechnology), pS[…]/236 (Cell Signaling #4856), S6 (Cell Signaling #2317), pAKT-5473 (Cell Signaling #9271), AKT (Cell Signaling #9272), PARP (Cell Signaling #9542) and GAPDH (Millipore).
Background: In western blotting, separated proteins are transferred to a membrane and probed.

The test system of test [6] is CAL-148, MFM-223 and MDA-MB-453 cells. Kind of test: 3-D forced suspension viability assay. The note with it: increasing doses, alone, 72 h; to a lesser degree than in 2-D. It counts as cell-based, human. On the procedure:
CAL-148, MFM-223 and MDA-MB-453 cells were plated (10,000 cells/well) in quadruplicate into 96-well plates coated with 0.9% agarose diluted in corresponding media. Following 5 d of growth, cells were then treated with increasing half-log concentrations of GDC-0941 (10-3000 nM), GDC0980 (1 nM −300 nM), BKM120 (10 nM-3000 nM) and NVP-BEZ235 (1 nM-300 nM) alone or in combination with 25 μM bicalutamide (CDX) for an additional 72 h, upon which cells were imaged and viability determined by Alamar blue.

The subject of another test is MDA-MB-453 cells. Kind of test: Sub-G1 (sub 2N DNA) fraction by FACs analysis. The test is classed as cell-based, human. The note with it: 48 h, alone. On the procedure: FIGS. 31A-31B: Combined inhibition of AR and PI3K increases apoptotic cell death in AR+TNBC cell lines. (31A) Bar graphs display relative caspase 3/7 activity (RLU) normalized to viable cell number 48 hrs after treatment with vehicle, positive control (3 μM adriamycin, ADR), 50 μM bicalutamide (CDX) and 3 μM GDC-0941 or 1 μM GDC-0980 alone or in combination with CDX. (31B) Histograms show representative cell cycle analysis of MDA-MB-453 cells treated with similar conditions as above. Indicated percentages represent the fraction of hypodiploid DNA (sub-G1), indicative of late stage apoptotic DNA fragmentation.
In addition to caspase activation, the percentage of sub 2N DNA (sub-G1)-containing cells (indicative of late stage apoptotic DNA fragmentation) was quantitated by FACs analysis. […] Therefore, the decreased viability of AR-positive TNBC cell lines treated with a combination of AR and PI3K inhibitors can be, in part, attributed to apoptosis.

Test [7] deals with CAL-148 and MDA-MB-453 xenograft tumors. Kind of test: Xenograft tumor studies (Example 2). The test is classed as in vivo, mice. The note with it: single agent alone; bicalutamide 100 mg/kg/d, GDC0980 7.5 mg/kg/d, NVP-BEZ235 50 mg/kg/d p.o. On the procedure:
Five-week-old female athymic nude-Foxnlnu mice (Harlan Sprague-Dawley) were injected (s.c.) with either ˜4×10^6 (CAL-148) or ˜10×10^6 (MDA-MB-453) cells suspended in media (200 μL) into each flank using a 22-gauge needle. Once tumors reached a volume of 25-50 mm^3, mice were randomly allocated to treatment or vehicle arms. Treatments included bicalutamide p.o. (100 mg/kg/d), GDC0980 p.o. (7.5 mg/kg/d) in 5% DMSO, 0.5% carboxymethyl cellulose (MCT) or NVP-BEZ235 p.o. (50 mg/kg/d) in 0.5% MCT or the combination of bicalutamide and either GDC-0980 or NVP-BEZ235 according to the above concentrations. Tumor diameters were serially measured at the indicated times with digital calipers and tumor volumes were calculated as width^2×length/2.

Test [8] relates to mesenchymal-like (M and MSL) TNBC cell lines. Kind of test: Cell proliferation/viability assay (alamarBlue) and IC50 determination. The test is classed as cell-based, human. The note with it: Homo sapiens; mesenchymal-like cell lines, 72 hours. On the procedure:
(§2) Cell proliferation/viability assays and IC50 determinations. All cell lines and culture conditions used can be found in Supplemental Methods (Table 5). Short tandem repeat (STR) DNA fingerprinting analysis was performed on all TNBC cell lines used in this study (Cell Line Genetics). […] Breast cancer cell lines and HMECs were seeded (3,000-10,000 cells) in quadruplicate wells in 96-well plates. […] Viability was determined from measuring fluorescent intensity after metabolic reduction of alamarBlue in the presence/absence of the drug after 72 hours. Viability assays were performed in triplicate, and replicates were normalized to untreated wells. […] For analysis of cell-line drug assays, data generated from the different cell lines representative of TNBC subtypes were compared using the nonparametric Mann-Whitney U test. All analyses and graphic representations were performed using Prism software (version 4.0c; GraphPad Software), and values are represented as the mean±SEM.

The test system of a further test is TNBC cell lines. Kind of test: Cell proliferation/viability assay (alamarBlue), panel of TNBC cell lines (Example 1). The test is classed as cell-based, human. The note with it: TNBC cell lines with activated PI3K/AKT signaling due to PIK3CA mutations or PTEN deficiency. On the procedure:
as §2

Test [9] deals with SUM185PE, CAL-148, CAL-51 and SUM159PT xenograft tumors. Kind of test: Xenograft tumor studies (Example 1), PIK3CA-mutant lines. The note with it: NVP-BEZ235 per oral 50 mg/kg/d, approximately 3 weeks. The test is classed as in vivo, mice.
Protocol: Xenograft tumor studies. Five-week-old female athymic nude-Foxnlnu mice (Harlan Sprague-Dawley) were injected (s.c.) with either approximately 5×10^6 (CAL-51, HCC1806, MDA-MB-468, and SUM185PE) or approximately 10×10^6 (CAL-148 and SUM159PT) cells suspended in medium (200 μl) into each flank using a 22-gauge needle. […] Once tumors reached a volume of 25-50 mm^3, mice were randomly allocated to treatment or vehicle arms. Treatments included bicalutamide per oral (100 mg/kg/d), cisplatin i.p. (8 mg/kg/wk), or NVP-BEZ235 per oral (50 mg/kg/d) in 1:9 N-methylpyrolidone: PEG300. Tumor diameters were serially measured at the indicated times with digital calipers, and tumor volumes were calculated as width^2×length/2. Data points reflect the means and SEM for 16 tumors per treatment.
The subject of test [10] is basal-like (BL1 and BL2) TNBC cell lines. Kind of test: Cell proliferation/viability assay (alamarBlue) and IC50 determination. It counts as cell-based, human. The note with it: read-out: average IC50. On the procedure:
as §1

Regarding `N.N.[Cl][Pt][Cl]` [cisplatin], the xenograft tumor growth result in test [1] is “significantly growth inhibited”. For the same molecule, in the test on LAR TNBC cell lines (LAR lines), the concentration for half-maximal inhibition (IC50) – broadly, the midpoint of a concentration-inhibition curve – is 15000 nM. Also, in test [2], the pCR is 21%.
As to `CS(=O)(=O)N1CCN(Cc2cc3nc(-c4cccc5[nH]ncc45)nc(N4CCOCC4)c3s2)CC1` [GDC-0941], the “caspase 3/7 activation” value in test [3] is on record as “caused caspase activation”. Further, the “viability, single agent” value in test [4] is “displayed efficacy”. For the same molecule, the “activated AKT” value in test [5] is “decreased activated AKT”. Moreover, the “cell aggregate size and viability” value in test [6] is “decreased cell aggregate size and viability”. Moreover, in the test with MDA-MB-453 cells, the “sub-G1 fraction” value is on record as “higher sub-G1 fraction”.
Turning to `Cc1c(CN2CCN(C(=O)[C@H](C)O)CC2)sc2c(N3CCOCC3)nc(-c3cnc(N)nc3)nc12` [GDC-0980], the “caspase 3/7 activation” value in [3] is “caused caspase activation”. In [4], the “viability, single agent” value was “displayed efficacy”. For the same molecule, the tumor growth result in test [7] was “significantly decreased tumor growth”. Also, the “activated AKT” value in [5] is “decreased activated AKT”. In addition, the AR levels result in test [5] (alone) is “decreased AR levels”. In addition, in test [5] (compared with GDC-0941), the “mTOR activity as measured by levels of phosphorylated S6” value is “more effective at decreasing mTOR activity”. Besides, the “cell aggregate size and viability” value in test [6] was “decreased cell aggregate size and viability”. In addition, the “sub-G1 fraction” value in the test with MDA-MB-453 cells was “higher sub-G1 fraction”.
With `Cn1c(=O)n(-c2ccc(C(C)(C)C#N)cc2)c2c3cc(-c4cnc5ccccc5c4)ccc3ncc21` [NVP-BEZ235], the IC50 stood at 44 nM in test [8]; 116 nM in [10] (72 hours); 201 nM in test [10] (Homo sapiens, 72 h); 37 nM with LAR TNBC cell lines (Homo sapiens, LAR cell lines). Also, in the test on TNBC cell lines, the “sensitivity (viability)” value is recorded as “highly sensitive”. In addition, in [9], the xenograft tumor response result was “partial response or complete”. In [7], the tumor growth entry was “significantly decreased tumor growth”.
